Experimental findings from the NIST ThermoML archive (doi:10.1016/j.tca.2014.01.028) are described below.

Series [1] can be described thus: Molar enthalpy of transition or fusion. The settings on record: Crystal; DSC.
For series [2] the following is noted: Crystal; DTA.

± gives the expanded uncertainty stated by the source.

As to `O=C(c1ccccc1)C(C(=O)c1ccccc1)[C@H](C[N+](=O)[O-])c1ccccc1`, the “Molar enthalpy of transition or fusion” value in series [1] is 7.65 ± 0.217 kcal/mol. Also, in series [2], the Normal melting temperature was 135.60 ± 0.5 °C.
